Where “and” joins values, the source holds several entries; their conditions need not be identical. Identical values can stand only once.
System: PDGFR-β
Experiment: Immunohistochemistry of end-point KPC tumors: panCAF marker
Format: in vivo, mouse
Conditions: for Percent coverage of PDGFR-ß positive staining: Extended Data 6C, KPC tumours at endpoint, individual FOV
Description: All tissues or matrices, including patient TMAs, were fixed in 10% buffered formalin and embedded in paraffin. The 4-μm sections of samples were deparaffinized with xylene and rehydrated in graded ethanol washes. For immunohistochemistry, Bond Dewax Solution (AR9222) was used. Antigen retrieval was performed using Bond RX H2(30) protocol: HIER 30 min ER1 (citrate pH 6) OR ER2 (EDTA pH 9) at 100 °C. Slides were quenched in BOND Polymer Refine Detection (Leica Biosystems DS9800). […] Slides were digitized on an Aperio slide scanner and representative areas per tumor acquired and analyzed by researchers blinded to the conditions of the experiment.
Extended Data Fig. 6 PXS-5505 in combination with gemcitabine in a KPC model. a. Quantification of proliferating cells (Ki67 positive nuclear staining) in KPC tumors at end point, treated as indicated. 5 fields of view (500 μm × 500 μm) per mouse and 10 mice per cohort were scored. […] Quantification of percent coverage of αSMA positive staining in KPC tumors at end point, treated as indicated. 3 fields of view (1000 μm × 1000 μm) per mouse and 10 mice per cohort were scored. […] Quantification of percent coverage of PDGFR-ß positive staining in KPC tumors at end point, treated as indicated. 3 fields of view (1000 μm × 1000 μm) per mouse and 10 mice per cohort were scored. […] Quantification of pMLC2 positive staining in stromal regions of KPC tumors at end point, treated as indicated. 3 fields of view (500 μm × 500 μm) per mouse and 10 mice per cohort were scored. […] Quantification of tumor vasculature (CD31 positive staining) in KPC tumors at end point, treated as indicated. 3 fields of view (1000 μm × 1000 μm) per mouse and 10 mice per cohort were scored. […] Quantification of STAT3 activation (pSTAT3 positive nuclear staining) in KPC tumors at end point, treated as indicated. 3 fields of view (1000 μm × 1000 μm) per mouse and 5 mice per cohort were scored. […] Scale bars = 100 μm. g Quantification of macrophage infiltration (F4/80 positive staining) in KPC tumors at end point, treated as indicated. […]

With Nc1ccn([C@@H]2O[C@H](CO)[C@@H](O)C2(F)F)c(=O)n1 [Gem, gemcitabine] the “Percent coverage of PDGFR-ß positive staining” value was 7.4938% and 2.1875% and 12.1122% and 4.282% and 6.095% and 3.1691% and 15.1145% and 8.8619% and 8.0756% and 17.8714% and 24.3073% and 20.1172% and 13.2929% and 10.304% and 12.3137% and 10.967% and 18.634% and 4.9424% and 8.9111% and 7.7908% and 2.017% and 14.5457% and 8.9344% and 10.6658% and 5.631% and 1.6247% and 8.4484% and 0.5673% and 1.2057% and 0.8465% and the PDGFR-β positivity (KPC tumors at end point) was “small decreases in positivity”.
Cl.Cl.NC/C=C(\F)CS(=O)(=O)c1cccc2cccnc12.O [PXS-5505, (Z)-3-fluoro-4-(quinolin-8-ylsulfonyl)but-2-en-1-amine dihydrochloride monohydrate] was tested, and the “Percent coverage of PDGFR-ß positive staining” value was 6.765% and 8.3993% and 2.8629% and 12.2376% and 9.6982% and 4.3212% and 4.8524% and 9.496% and 7.1445% and 8.9357% and 7.1025% and 17.1234% and 12.5648% and 3.0699% and 20.4926% and 2.5465% and 8.2725% and 3.1151% and 4.1221% and 5.7763% and 4.8975% and 4.1951% and 11.8569% and 14.757% and 1.2435% and 4.7314% and 2.3407% and 3.9912% and 1.8413% and 6.5811%.

— paper PMC10518255, “A first-in-class pan-lysyl oxidase inhibitor impairs stromal remodeling and enhances gemcitabine response and survival in pancreatic cancer” (Nature Cancer, 2023)
